ChEMBL document CHEMBL1201862, “PubChem BioAssay data set” (2004)
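Growth conditions: 96-well plates. Treatment: test compound, 48 hours, 5 concentrations. Analysis: linear interpolation between bracketing concentrations; unreached endpoints set to highest concentration. Here, GI50 denotes the concentration required for 50% inhibition of growth.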 Active and inactive are the calls of the source. No stated cut-off is given here; in the data, active = GI50 up to about 1.1 µM and inactive = higher.

What was measured:
Test in all cases: NCI anticancer screen, dose series, 48 h
SF-295 = tested on: SF-295
HT-29 = tested on: HT-29
SR = tested on: SR
Malme-3M = tested on: Malme-3M
PC-3 = tested on: PC-3
BT-549 = tested on: BT-549
OVCAR-3 = tested on: OVCAR-3
COLO 205 = tested on: COLO 205
SNB-19 = tested on: SNB-19
HCC 2998 = tested on: HCC 2998
MDA-MB-435 = tested on: MDA-MB-435
786-0 = tested on: 786-0
UO-31 = tested on: UO-31
HCT-116 = tested on: HCT-116
SK-MEL-28 = tested on: SK-MEL-28
SW-620 = tested on: SW-620
Hs-578T = tested on: Hs-578T
IGROV-1 = tested on: IGROV-1
HOP-92 = tested on: HOP-92

Row | SMILES | GI50 (SF-295) | GI50 (HT-29) | GI50 (SR) | GI50 (Malme-3M) | GI50 (PC-3) | GI50 (BT-549) | GI50 (OVCAR-3) | GI50 (COLO 205) | GI50 (SNB-19) | GI50 (HCC 2998) | GI50 (MDA-MB-435) | GI50 (786-0) | GI50 (UO-31) | GI50 (HCT-116) | GI50 (SK-MEL-28) | GI50 (SW-620) | GI50 (Hs-578T) | GI50 (IGROV-1) | GI50 (HOP-92)
1 | O=C(CSc1nc2nncc-2c(O)[nH]1)c1ccc(Cl)cc1 | > 100 µM (inactive) | > 100 µM (inactive) | > 100 µM (inactive) | > 100 µM (inactive) | > 100 µM (inactive) | > 100 µM (inactive) | > 100 µM (inactive) | > 100 µM (inactive) | > 100 µM (inactive) | > 100 µM (inactive) | > 100 µM (inactive) | > 100 µM (inactive) | > 100 µM (inactive) | > 100 µM (inactive) | > 100 µM (inactive) | > 100 µM (inactive) | > 100 µM (inactive) | > 100 µM (inactive) | 
2 | O=c1cc(-c2ccccc2)nc(-n2[nH]c3c(c2=O)CCCC3)[nH]1 | 4.33 µM (inactive) | 4.31 µM (inactive) | 1.03 µM (active) | 11.1 µM (inactive) | 5 µM (inactive) | 9.38 µM (inactive) |  | 3.82 µM (inactive) | 11 µM (inactive) |  | 4.59 µM (inactive) | 1.91 µM (inactive) | 7.29 µM (inactive) | 2.7 µM (inactive) | 4.29 µM (inactive) | 4.24 µM (inactive) | 23.4 µM (inactive) | 4.53 µM (inactive) | 2.85 µM (inactive)
3 | CC1CCC2C(C)C(OC(=O)CCC(=O)O)OC3OC4(C)CCC1C32OO4 (centres undefined) | 15.8 µM (inactive) | 3.52 µM (inactive) | 0.519 µM (active) |  | 0.353 µM (active) | 11.2 µM (inactive) | 5.52 µM (inactive) | 1.42 µM (inactive) | 37.6 µM (inactive) | 5.94 µM (inactive) | 1.51 µM (inactive) | 15.4 µM (inactive) | 1.33 µM (inactive) | 0.759 µM (active) | 37.5 µM (inactive) | 1.57 µM (inactive) | 16 µM (inactive) | 10.4 µM (inactive) | 11.6 µM (inactive)
4 | CC1OC(OC2C(O[C@H]3CC[C@@]4(C)C(=CC[C@H]5[C@@H]6C[C@@H]7O[C@]8(CC[C@H](C)CN8)[C@@H](C)[C@@H]7[C@@]6(C)CC[C@@H]54)C3)OC(CO)C(O)C2OC2OC(CO)C(O)C(O)C2O)C(O)C(O)C1O (some centres undefined) | 18.4 µM (inactive) | 17.8 µM (inactive) | 29 µM (inactive) | 18 µM (inactive) | 18.1 µM (inactive) | 17 µM (inactive) |  | 17.9 µM (inactive) | 20.7 µM (inactive) | 18.3 µM (inactive) | 23.5 µM (inactive) | 24 µM (inactive) | 19.1 µM (inactive) | 20.1 µM (inactive) | 19.1 µM (inactive) | 19.2 µM (inactive) | 14.7 µM (inactive) | 19.5 µM (inactive) | 17.5 µM (inactive)
5 | COP(=O)(/C=C/C(NC(=O)C(Cl)(Cl)Cl)c1ccccc1)OC (centres undefined) | > 100 µM (inactive) | > 100 µM (inactive) |  | > 100 µM (inactive) | > 100 µM (inactive) | > 100 µM (inactive) | > 100 µM (inactive) | > 100 µM (inactive) | > 100 µM (inactive) | > 100 µM (inactive) | > 100 µM (inactive) | > 100 µM (inactive) | > 100 µM (inactive) | > 100 µM (inactive) | > 100 µM (inactive) | > 100 µM (inactive) | > 100 µM (inactive) | > 100 µM (inactive) | > 100 µM (inactive)
6 | CC(C(=O)O)C(C)(O)C(=O)O (centres undefined) |  | > 100 µM (inactive) | > 100 µM (inactive) | > 100 µM (inactive) | > 100 µM (inactive) | > 100 µM (inactive) | > 100 µM (inactive) | > 100 µM (inactive) | > 100 µM (inactive) | > 100 µM (inactive) | > 100 µM (inactive) | > 100 µM (inactive) | > 100 µM (inactive) | > 100 µM (inactive) | > 100 µM (inactive) | > 100 µM (inactive) | > 100 µM (inactive) | > 100 µM (inactive) | 
7 | Cc1ccc2c(c1)C(=S)N1CSCC1c1nncn1-2 (centres undefined) | > 100 µM (inactive) | > 100 µM (inactive) | > 100 µM (inactive) | > 100 µM (inactive) | > 100 µM (inactive) | > 100 µM (inactive) | > 100 µM (inactive) | > 100 µM (inactive) | > 100 µM (inactive) | > 100 µM (inactive) | > 100 µM (inactive) | > 100 µM (inactive) | > 100 µM (inactive) | > 100 µM (inactive) | > 100 µM (inactive) | > 100 µM (inactive) | > 100 µM (inactive) | > 100 µM (inactive) | 
